Assay results taken from the NIST ThermoML archive (doi:10.1016/j.jct.2007.04.011).

What was measured:
[1] = 298.15 K, 101.33 kPa, Liquid
[2] = molar heat capacity at constant pressure; details: 101.33 kPa, Liquid
[3] = xn = mol fraction of the nth substance listed; details: 101 kPa, Liquid, Small sample (50 mg) DSC

CC(O)C(C)O (stereo unspecified) [2,3-butanediol]
Details	mass density [kg/m3]
[1]	1000.4

[2]
Details	molar heat capacity at constant pressure [J/K/mol]
298.15 K	236.67
303.15 K	239.28
308.15 K	241.85
313.15 K	244.35
318.15 K	246.82
323.15 K	249.23
328.15 K	251.6
333.15 K	253.91
338.15 K	256.17
343.15 K	258.39
348.15 K	260.55
353.15 K	262.67

CCCCO [butan-1-ol]
Details	mass density [kg/m3]
[1]	805.77

[2]
Details	molar heat capacity at constant pressure [J/K/mol]
293.15 K	173.8
298.15 K	177.1
303.15 K	180.61
308.15 K	184.28
313.15 K	188.02
318.15 K	192.1
323.15 K	196.13
328.15 K	200.4
333.15 K	204.72
338.15 K	209.16
343.15 K	213.57
348.15 K	218.1
353.15 K	222.54

OCCCCO [1,4-butanediol]
Details	mass density [kg/m3]
[1]	1012.75

[2]
Details	molar heat capacity at constant pressure [J/K/mol]
293.15 K	200.39
298.15 K	203.06
303.15 K	205.82
308.15 K	208.65
313.15 K	211.57
318.15 K	214.55
323.15 K	217.61
328.15 K	220.72
333.15 K	223.9
338.15 K	227.12
343.15 K	230.4
348.15 K	233.72
353.15 K	237.07

OCCCCO [1,4-butanediol] + CCCCO
excess molar heat capacity [J/K/mol], [3]
Details	x1 = 0.0804	x1 = 0.1099	x1 = 0.1826	x1 = 0.2497	x1 = 0.3244	x1 = 0.5919
293.15 K	0.031	0.095	0.129	0.127	0.089	0.005
298.15 K	–	0.096	0.011	0.093	0.016	–
303.15 K	–	0.055	–	0.025	–	–

CC(O)CC(C)(C)O (stereo unspecified) [2-methyl-2,4-pentanediol]
Details	mass density [kg/m3]	molar heat capacity at constant pressure [J/K/mol]
[1], Vibrating tube method	918.22	–
[2], 298.15 K	–	263.09
[2], 303.15 K	–	267.1
[2], 308.15 K	–	271.31
[2], 313.15 K	–	275.53
[2], 318.15 K	–	279.94
[2], 323.15 K	–	284.5
[2], 328.15 K	–	289.17
[2], 333.15 K	–	293.9
[2], 338.15 K	–	298.68
[2], 343.15 K	–	303.35
[2], 353.15 K	–	313.68

CCC(O)CO (stereo unspecified) [1,2-butanediol]
Details	mass density [kg/m3]
[1]	998.408

[2]
Details	molar heat capacity at constant pressure [J/K/mol]
288.15 K	225.51
293.15 K	228.22
298.15 K	230.94
303.15 K	233.64
308.15 K	236.32
313.15 K	238.97
318.15 K	241.59
323.15 K	244.18
328.15 K	246.72
333.15 K	249.2
338.15 K	251.63
343.15 K	254
348.15 K	256.29
353.15 K	258.5
358.15 K	260.63
